From PubChem BioAssay (NCI)
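Step 1: Grow cells in 96-well plates. Step 2: Expose to compound for 48 hours at 5 concentrations. Step 3: Interpolate endpoints linearly; if unreached, use highest concentration. At the GI50, growth is halved. The concentration for full growth arrest is given as TGI.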

How the values were obtained:
Test in all cases: NCI anticancer screen, dose series, 48 h
HT29 colon = system: HT29 colon
TK-10 renal = system: TK-10 renal
MALME-3M melanoma = system: MALME-3M melanoma
NCI-H460 lung = system: NCI-H460 lung
EKVX NSCLC = system: EKVX NSCLC
MCF7 breast = system: MCF7 breast
KM12 colon = system: KM12 colon
UO-31 renal = system: UO-31 renal
T-47D breast = system: T-47D breast
BT-549 breast = system: BT-549 breast
M14 melanoma = system: M14 melanoma
SF-295 CNS = system: SF-295 CNS
HL-60(TB) leukemia = system: HL-60(TB) leukemia
IGROV1 ovarian = system: IGROV1 ovarian
RXF 393 renal = system: RXF 393 renal
PC-3 prostate = system: PC-3 prostate
CCRF-CEM leukemia = system: CCRF-CEM leukemia
SF-539 CNS = system: SF-539 CNS
LOX IMVI melanoma = system: LOX IMVI melanoma
MOLT-4 leukemia = system: MOLT-4 leukemia
786-0 renal = system: 786-0 renal
SK-MEL-2 melanoma = system: SK-MEL-2 melanoma
HS 578T breast = system: HS 578T breast
COLO 205 colon = system: COLO 205 colon
A549 NSCLC = system: A549 NSCLC
A498 renal = system: A498 renal
HOP-62 NSCLC = system: HOP-62 NSCLC
SW-620 colon = system: SW-620 colon
OVCAR-3 ovarian = system: OVCAR-3 ovarian
SK-MEL-5 melanoma = system: SK-MEL-5 melanoma
OVCAR-5 ovarian = system: OVCAR-5 ovarian
K-562 leukemia = system: K-562 leukemia
UACC-257 melanoma = system: UACC-257 melanoma
OVCAR-8 ovarian = system: OVCAR-8 ovarian
ACHN renal = system: ACHN renal
SF-268 CNS = system: SF-268 CNS
HCT-116 colon = system: HCT-116 colon
HOP-92 NSCLC = system: HOP-92 NSCLC
NCI-H23 lung = system: NCI-H23 lung
HCT-15 colon = system: HCT-15 colon
DU-145 prostate = system: DU-145 prostate
SK-OV-3 ovarian = system: SK-OV-3 ovarian
HCC-2998 colon = system: HCC-2998 colon
SR leukemia = system: SR leukemia
NCI-H226 lung = system: NCI-H226 lung
UACC-62 melanoma = system: UACC-62 melanoma
RPMI-8226 leukemia = system: RPMI-8226 leukemia
SNB-19 CNS = system: SNB-19 CNS
MDA-MB-435 = system: MDA-MB-435
SN12C renal = system: SN12C renal
OVCAR-4 ovarian = system: OVCAR-4 ovarian
SK-MEL-28 melanoma = system: SK-MEL-28 melanoma
U251 CNS = system: U251 CNS
NCI/ADR-RES ovarian = system: NCI/ADR-RES ovarian
NCI-H522 lung = system: NCI-H522 lung
MDA-MB-231 breast = system: MDA-MB-231 breast

CCCCN1CCCC[C@@H]1C(=O)N[C@H](C(=O)N(C)[C@H](C[C@@H](OC(C)=O)c1nc(C(=O)NC2CCC(C(=O)OC)CC2)cs1)C(C)C)C(C)C (some centres not stated)
GI50 (HT29 colon): 960 nM | TGI (HT29 colon): 13600 nM | GI50 (TK-10 renal): > 25000 nM | TGI (TK-10 renal): > 25000 nM | GI50 (MALME-3M melanoma): 1970 nM | TGI (MALME-3M melanoma): > 25000 nM | GI50 (NCI-H460 lung): 1080 nM | TGI (NCI-H460 lung): > 25000 nM | GI50 (EKVX NSCLC): 1150 nM | TGI (EKVX NSCLC): > 25000 nM | GI50 (MCF7 breast): 806 nM | TGI (MCF7 breast): > 25000 nM | GI50 (KM12 colon): 1070 nM | TGI (KM12 colon): > 25000 nM | GI50 (UO-31 renal): 7060 nM | TGI (UO-31 renal): > 25000 nM | GI50 (T-47D breast): 1620 nM | TGI (T-47D breast): > 25000 nM | GI50 (BT-549 breast): 1400 nM | TGI (BT-549 breast): > 25000 nM | GI50 (M14 melanoma): 983 nM | TGI (M14 melanoma): 18100 nM | GI50 (SF-295 CNS): 1010 nM | TGI (SF-295 CNS): 8060 nM | GI50 (HL-60(TB) leukemia): 732 nM | TGI (HL-60(TB) leukemia): 2170 nM | GI50 (IGROV1 ovarian): 1880 nM | TGI (IGROV1 ovarian): > 25000 nM | GI50 (RXF 393 renal): 995 nM | TGI (RXF 393 renal): 11600 nM | GI50 (PC-3 prostate): 1410 nM | TGI (PC-3 prostate): > 25000 nM | GI50 (CCRF-CEM leukemia): 1100 nM | TGI (CCRF-CEM leukemia): > 25000 nM | GI50 (SF-539 CNS): 1490 nM | TGI (SF-539 CNS): 11800 nM | GI50 (LOX IMVI melanoma): 1360 nM | TGI (LOX IMVI melanoma): > 25000 nM | GI50 (MOLT-4 leukemia): 1180 nM | TGI (MOLT-4 leukemia): > 25000 nM | GI50 (786-0 renal): 1500 nM | TGI (786-0 renal): > 25000 nM | GI50 (SK-MEL-2 melanoma): 5280 nM | TGI (SK-MEL-2 melanoma): > 25000 nM | GI50 (HS 578T breast): 1960 nM | TGI (HS 578T breast): > 25000 nM | GI50 (COLO 205 colon): 1260 nM | TGI (COLO 205 colon): 11500 nM | GI50 (A549 NSCLC): 1680 nM | TGI (A549 NSCLC): > 25000 nM | GI50 (A498 renal): 6350 nM | TGI (A498 renal): > 25000 nM | GI50 (HOP-62 NSCLC): 2350 nM | TGI (HOP-62 NSCLC): > 25000 nM | GI50 (SW-620 colon): 1060 nM | TGI (SW-620 colon): > 25000 nM | GI50 (OVCAR-3 ovarian): 1070 nM | TGI (OVCAR-3 ovarian): > 25000 nM | GI50 (SK-MEL-5 melanoma): 1220 nM | TGI (SK-MEL-5 melanoma): > 25000 nM | GI50 (OVCAR-5 ovarian): 4750 nM | TGI (OVCAR-5 ovarian): > 25000 nM | GI50 (K-562 leukemia): 691 nM | TGI (K-562 leukemia): > 25000 nM | GI50 (UACC-257 melanoma): 2420 nM | TGI (UACC-257 melanoma): > 25000 nM | GI50 (OVCAR-8 ovarian): 2100 nM | TGI (OVCAR-8 ovarian): > 25000 nM | GI50 (ACHN renal): 2390 nM | TGI (ACHN renal): > 25000 nM | GI50 (SF-268 CNS): 2290 nM | TGI (SF-268 CNS): > 25000 nM | GI50 (HCT-116 colon): 1000 nM | TGI (HCT-116 colon): > 25000 nM | GI50 (HOP-92 NSCLC): 1130 nM | TGI (HOP-92 NSCLC): > 25000 nM | GI50 (NCI-H23 lung): 1500 nM | TGI (NCI-H23 lung): > 25000 nM | GI50 (HCT-15 colon): 851 nM | TGI (HCT-15 colon): 16800 nM | GI50 (DU-145 prostate): 1310 nM | TGI (DU-145 prostate): > 25000 nM | GI50 (SK-OV-3 ovarian): 2140 nM | TGI (SK-OV-3 ovarian): > 25000 nM | GI50 (HCC-2998 colon): 4020 nM | TGI (HCC-2998 colon): > 25000 nM | GI50 (SR leukemia): 242 nM | TGI (SR leukemia): > 25000 nM | GI50 (NCI-H226 lung): 3840 nM | TGI (NCI-H226 lung): > 25000 nM | GI50 (UACC-62 melanoma): 1060 nM | TGI (UACC-62 melanoma): > 25000 nM | GI50 (RPMI-8226 leukemia): 1100 nM | TGI (RPMI-8226 leukemia): > 25000 nM | GI50 (SNB-19 CNS): 1830 nM | TGI (SNB-19 CNS): > 25000 nM | GI50 (MDA-MB-435): 224 nM | TGI (MDA-MB-435): 736 nM | GI50 (SN12C renal): 2150 nM | TGI (SN12C renal): > 25000 nM | GI50 (OVCAR-4 ovarian): 3950 nM | TGI (OVCAR-4 ovarian): > 25000 nM | GI50 (SK-MEL-28 melanoma): 17900 nM | TGI (SK-MEL-28 melanoma): > 25000 nM | GI50 (U251 CNS): 1180 nM | TGI (U251 CNS): > 25000 nM | GI50 (NCI/ADR-RES ovarian): 3530 nM | TGI (NCI/ADR-RES ovarian): > 25000 nM | GI50 (NCI-H522 lung): 897 nM | TGI (NCI-H522 lung): 7040 nM | GI50 (MDA-MB-231 breast): 1890 nM | TGI (MDA-MB-231 breast): 18200 nM
